Measured values reported in patent US8003649B2 (AstraZeneca AB, priority 2007, dated 2011).

Each molecule was assayed against T1, Androgen Receptor (AR) (Homo sapiens, UniProt P10275, T878A) (assay: LNCaP Androgen Receptor Down-regulation Cell Assay (immunofluorescence end point)). Conditions: LNCaP prostate carcinoma cells, compound incubation 20-22 hours, 50% reduction of the AR signal.
T1 construct: cell based immuno-fluorescence assay using the LNCaP prostate epithelial cell line; endogenous in cells; host or cells: LNCaP clone FGC (ATCC CRL-1740)
T1 sequence (P10275 1-920 T878A): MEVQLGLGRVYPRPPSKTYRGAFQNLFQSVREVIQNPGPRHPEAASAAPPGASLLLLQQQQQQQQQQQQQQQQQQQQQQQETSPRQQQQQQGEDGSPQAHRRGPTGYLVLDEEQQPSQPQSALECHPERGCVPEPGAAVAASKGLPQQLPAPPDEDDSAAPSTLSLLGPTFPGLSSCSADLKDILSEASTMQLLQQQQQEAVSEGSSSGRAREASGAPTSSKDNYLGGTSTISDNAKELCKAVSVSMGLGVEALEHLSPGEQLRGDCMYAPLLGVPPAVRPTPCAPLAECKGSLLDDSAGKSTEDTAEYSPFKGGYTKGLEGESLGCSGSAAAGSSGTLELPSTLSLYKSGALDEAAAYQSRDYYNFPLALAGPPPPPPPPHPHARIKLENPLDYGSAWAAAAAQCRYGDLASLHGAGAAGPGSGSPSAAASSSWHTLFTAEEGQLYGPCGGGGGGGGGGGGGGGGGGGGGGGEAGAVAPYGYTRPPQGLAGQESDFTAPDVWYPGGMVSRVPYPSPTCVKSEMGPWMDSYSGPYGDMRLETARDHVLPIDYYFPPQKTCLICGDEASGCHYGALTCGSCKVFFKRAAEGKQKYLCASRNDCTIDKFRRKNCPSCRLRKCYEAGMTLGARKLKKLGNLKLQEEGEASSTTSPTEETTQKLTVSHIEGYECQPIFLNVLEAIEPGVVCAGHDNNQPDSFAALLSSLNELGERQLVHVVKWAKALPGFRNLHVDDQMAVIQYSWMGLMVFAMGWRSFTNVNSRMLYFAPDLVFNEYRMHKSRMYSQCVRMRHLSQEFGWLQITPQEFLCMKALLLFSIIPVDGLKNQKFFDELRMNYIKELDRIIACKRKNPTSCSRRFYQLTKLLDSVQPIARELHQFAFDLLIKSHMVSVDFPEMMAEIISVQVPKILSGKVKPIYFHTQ
Format: cell-based
Outline: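 LNCaP cells in medium with 5% charcoal-stripped FBS were plated overnight, then treated with a compound dilution series for 20-22 h at 37° C. After fixation, permeabilisation and immunostaining, AR-associated green fluorescence was quantified by laser-scanning microplate cytometry; AR down-regulation expressed as IC50 from fitted dose-response curves.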

Structure (SMILES)	IC50
CS(=O)(=O)Oc1cccc(CN2CCN(c3ccc4nnc(C(F)(F)F)n4n3)CC2)c1 [Example 151, [3-[[4-[3-(trifluoromethyl)-[1,2,4]triazolo[4,3-b]pyridazin-6-yl]piperazin-1-yl]methyl]phenyl]methanesulfonate]	3.1 µM

Same assay, conditions: LNCaP prostate carcinoma cells, compound incubation 20-22 hours, 50% reduction of the AR signal; read-out: Androgen Receptor Down-regulation Assay (a) IC50/μM

Structure (SMILES)	DC50
Cc1ccc(Sc2ccc(CN3CCN(c4ccc5nnc(C(F)(F)F)n5n4)CC3)cn2)cc1 [Example 124, 6-[4-[[6-(4-methylphenyl)sulfanylpyridin-3-yl]methyl]piperazin-1-yl]-3-(trifluoromethyl)-[1,2,4]triazolo[4,3-b]pyridazine]	1.7 µM
Fc1ccc(-c2cccc(CN3CCN(c4ccc5nnc(C(F)(F)F)n5n4)CC3)c2)cc1 [Example 125, 6-[4-[[3-(4-fluorophenyl)phenyl]methyl]piperazin-1-yl]-3-(trifluoromethyl)-[1,2,4]triazolo[4,3-b]pyridazine]	1.9 µM
Fc1ccc(Oc2ccc(CN3CCN(c4ccc5nnc(C(F)(F)F)n5n4)CC3)cc2)cc1 [Example 126, 6-[4-[[4-(4-fluorophenoxy)phenyl]methyl]piperazin-1-yl]-3-(trifluoromethyl)-[1,2,4]triazolo[4,3-b]pyridazine]	2 µM
FC(F)(F)c1nnc2ccc(N3CCN(Cc4ccc(Oc5ccc(Cl)cc5)cc4)CC3)nn12 [Example 132, 6-[4-[[4-(4-chlorophenoxy)phenyl]methyl]piperazin-1-yl]-3-(trifluoromethyl)-[1,2,4]triazolo[4,3-b]pyridazine]	2.6 µM
FC(F)(F)c1nnc2ccc(N3CCN(Cc4ccc(-c5ccccn5)cc4)CC3)nn12 [Example 134, 6-[4-[(4-pyridin-2-ylphenyl)methyl]piperazin-1-yl]-3-(trifluoromethyl)-[1,2,4]triazolo[4,3-b]pyridazine]	1.8 µM
CCS(=O)(=O)c1ccc(CN2CCN(c3ccc4nnc(C(F)(F)F)n4n3)CC2)cc1 [Example 135, 6-[4-[(4-ethylsulfonylphenyl)methyl]piperazin-1-yl]-3-(trifluoromethyl)-[1,2,4]triazolo[4,3-b]pyridazine]	4.9 µM
FC(F)(F)c1nnc2ccc(N3CCN(Cc4ccc(Cl)nc4)CC3)nn12 [Example 137, 6-[4-[(6-chloropyridin-3-yl)methyl]piperazin-1-yl]-3-(trifluoromethyl)-[1,2,4]triazolo[4,3-b]pyridazine]	1.5 µM
COc1ccc(CN2CCN(c3ccc4nnc(C(F)(F)F)n4n3)CC2)cn1 [Example 142, 6-[4-[(6-methoxypyridin-3-yl)methyl]piperazin-1-yl]-3-(trifluoromethyl)-[1,2,4]triazolo[4,3-b]pyridazine]	5.1 µM
FC(F)(F)c1nnc2ccc(N3CCN(Cc4ccc(N5CCOCC5)nc4)CC3)nn12 [Example 143, 6-[4-[(6-morpholin-4-ylpyridin-3-yl)methyl]piperazin-1-yl]-3-(trifluoromethyl)-[1,2,4]triazolo[4,3-b]pyridazine]	8.8 µM
FC(F)(F)c1nnc2ccc(N3CCN(Cc4ccc(Oc5ccccc5)nc4)CC3)nn12 [Example 144, 6-[4-[(6-phenoxypyridin-3-yl)methyl]piperazin-1-yl]-3-(trifluoromethyl)-[1,2,4]triazolo[4,3-b]pyridazine]	4.9 µM
CCOc1ccc(CN2CCN(c3ccc4nnc(C(F)(F)F)n4n3)CC2)cn1 [Example 147, 6-[4-[(6-ethoxypyridin-3-yl)methyl]piperazin-1-yl]-3-(trifluoromethyl)-[1,2,4]triazolo[4,3-b]pyridazine]	2.5 µM
CC(C)Oc1ccc(CN2CCN(c3ccc4nnc(C(F)(F)F)n4n3)CC2)cn1 [Example 148, 6-[4-[(6-propan-2-yloxypyridin-3-yl)methyl]piperazin-1-yl]-3-(trifluoromethyl)-[1,2,4]triazolo[4,3-b]pyridazine]	3.4 µM
OCc1cccc(CN2CCN(c3ccc4nnc(C(F)(F)F)n4n3)CC2)c1 [Example 149, [3-[[4-[3-(trifluoromethyl)-[1,2,4]triazolo[4,3-b]pyridazin-6-yl]piperazin-1-yl]methyl]phenyl]methanol]	7.9 µM
CS(=O)(=O)Nc1cccc(CN2CCN(c3ccc4nnc(C(F)(F)F)n4n3)CC2)c1 [Example 150, N-[3-[[4-[3-(trifluoromethyl)-[1,2,4]triazolo[4,3-b]pyridazin-6-yl]piperazin-1-yl]methyl]phenyl]methanesulfonamide]	7.6 µM

The next lines start with the values.

DC50	Structure (SMILES)
4.1 µM	CC(C)Cc1ccc(CN2CCN(c3ccc4nnc(C(F)(F)F)n4n3)CC2)cc1 [Example 123, 6-[4-[[4-(2-methylpropyl)phenyl]methyl]piperazin-1-yl]-3-(trifluoromethyl)-[1,2,4]triazolo[4,3-b]pyridazine]
1.5 µM	FC(F)(F)c1nnc2ccc(N3CCN(Cc4ccc(Br)cc4)CC3)nn12 [Example 127, 6-[4-[(4-bromophenyl)methyl]piperazin-1-yl]-3-(trifluoromethyl)-[1,2,4]triazolo[4,3-b]pyridazine]
2.3 µM	CCN(CC)c1ccc(CN2CCN(c3ccc4nnc(C(F)(F)F)n4n3)CC2)cc1 [Example 128, N,N-diethyl-4-[[4-[3-(trifluoromethyl)-[1,2,4]triazolo[4,3-b]pyridazin-6-yl]piperazin-1-yl]methyl]aniline]
0.99 µM	CSc1ccc(CN2CCN(c3ccc4nnc(C(F)(F)F)n4n3)CC2)cc1 [Example 129, 6-[4-[(4-methylsulfanylphenyl)methyl]piperazin-1-yl]-3-(trifluoromethyl)-[1,2,4]triazolo[4,3-b]pyridazine]
1.8 µM	CC(C)c1ccc(CN2CCN(c3ccc4nnc(C(F)(F)F)n4n3)CC2)cc1 [Example 130, 6-[4-[(4-propan-2-ylphenyl)methyl]piperazin-1-yl]-3-(trifluoromethyl)-[1,2,4]triazolo[4,3-b]pyridazine]
4.1 µM	FC(F)(F)Oc1ccc(CN2CCN(c3ccc4nnc(C(F)(F)F)n4n3)CC2)cc1 [Example 131, 6-[4-[[4-(trifluoromethoxy)phenyl]methyl]piperazin-1-yl]-3-(trifluoromethyl)-[1,2,4]triazolo[4,3-b]pyridazine]
2 µM	C=CCOc1ccc(CN2CCN(c3ccc4nnc(C(F)(F)F)n4n3)CC2)cc1 [Example 139, 6-[4-[(4-prop-2-enoxyphenyl)methyl]piperazin-1-yl]-3-(trifluoromethyl)-[1,2,4]triazolo[4,3-b]pyridazine]
7.1 µM	CN(C)CCOc1ccc(CN2CCN(c3ccc4nnc(C(F)(F)F)n4n3)CC2)cc1 [Example 140, N,N-dimethyl-2-[4-[[4-[3-(trifluoromethyl)-[1,2,4]triazolo[4,3-b]pyridazin-6-yl]piperazin-1-yl]methyl]phenoxy]ethanamine]
6.7 µM	CS(=O)(=O)Oc1ccc(CN2CCN(c3ccc4nnc(C(F)(F)F)n4n3)CC2)cc1 [Example 152, [4-[[4-[3-(trifluoromethyl)-[1,2,4]triazolo[4,3-b]pyridazin-6-yl]piperazin-1-yl]methyl]phenyl]methanesulfonate]
7.9 µM	NC(=O)COc1ccc(CN2CCN(c3ccc4nnc(C(F)(F)F)n4n3)CC2)cc1 [Example 153, 2-[4-[[4-[3-(trifluoromethyl)-[1,2,4]triazolo[4,3-b]pyridazin-6-yl]piperazin-1-yl]methyl]phenoxy]acetamide]
